Patent US11415579B2, “Assay for measuring a rate of reaction between a target and a ligand candidate” (Imperial College Innovations Ltd., priority 2016, dated 2022)

What was measured:
[1] = Kinetic thiol consumption assay with model thiol glutathione; type: physicochemical; parameters: Rate constant with glutathione (k(GSH)): unit not given here; conditions: for Rate constant with Glutathione: Protein: Glutathione, cysteine position NA, in h-1; for Rate constant with glutathione (k(GSH)): 500 μM ligand, 5 μM thiol, phosphate buffer pH 8
Method: (§1) A library of 120 acrylamides was screened against a) human cyclin-dependent kinase 2 (Cdk2, which contains one surface exposed cysteine residue—C177), prepared by cloning cDNA into the pRSETA bacterial expression vector to generate a poly-histidine tagged Cdk2 fusion that was purified from E. coli using standard techniques, and b) a model thiol (specific details are given below). The structures of these 120 acrylamides are set out in Table 1, above.
(§2) To wells containing 150 μL thiol (Cdk2 or model thiol) (5 μM) in degassed phosphate buffer (pH 8) was added immobilized TCEP beads (2% v/v).
(§3) After incubation of the fluorescence plates for 1 hour at room temperature, fluorescence measurements (excitation/emission of 380/470 nm) were taken on a PerkinElmer EnVision multilabel plate reader and processed with EnVision Workstation version 1.12.
(§4) Fluorescence measurements were normalized against a DMSO/thiol only control and plotted against time.
(§5) Rate constants were calculated using GraphPad software Prism version 6 by fitting a first order exponential decay to the data. The rate constant for each acrylamide with Cdk2 was divided by the rate constant for that fragment with the model thiol to provide the rate enhancement for each ligand candidate.
The model thiol in Example 1 is glutathione (GSH). Hits were defined as fragments where kCdk2/kGSH>5.8 (empirically determined as 3 standard deviations over the mean).

[2] = biological target: T1, human cyclin-dependent kinase 2 (Cdk2) (Homo sapiens, UniProt P24941); experiment: Kinetic thiol consumption assay with wild type Cdk2 (C177); type: binding; parameters: key to Rate enhancement, Cdk2 WT: k(Cdk2) divided by k(model thiol); Rate constant with Cdk2 (k(Cdk2)): unit not given here; conditions: for Rate enhancement, Cdk2 WT: no additional mutations; for Rate constant with Cdk2 WT: Protein: Cdk2, cysteine position WT, in h^-1; for Rate constant with Cdk2 (k(Cdk2)): 500 μM ligand, 5 μM thiol, phosphate buffer pH 8; for k(Cdk2)/k(GSH) rate enhancement: model thiol glutathione
T1 construct: poly-histidine; made in house; host or cells: E. coli
Method: as §1, §2, §3, §4, §5

Cdk2(C177A, F80C) = biological target: T2, Cdk2(C177A, F80C) (Homo sapiens, UniProt P24941, C177A/F80C); experiment: Kinetic thiol consumption assay with Cdk2 mutant F80C, incl. kobs versus concentration (Kd, k2); type: binding; parameters: key to Rate enhancement, Cdk2 F80C: Cdk2 rate constant divided by model-thiol rate constant; conditions: additional mutation C177A; for Rate constant with Cdk2 F80C: Protein: Cdk2, cysteine position F80C, in h^-1
T2 construct: poly-histidine; made in house; host or cells: E. coli
Method: Therefore the assay can be used to calculate both k2 and Kd by experimentally determining kobs at a suitable range of ligand candidate concentrations. Typically Kd and k2 would then be determined by fitting a hyperbolic curve to a plot of kobs against ligand candidate concentration (FIG. 9).
as §2, §3, §4, §5
(§6) A further set of set of additional Cdk2 mutants were screened, all containing the C177A mutation and therefore with only one cysteine on the surface: • F80C (without the K278C mutation) • H71C • S276C • N272 • T182C • R122C • S181C
(§7) Mutations were introduced by site-directed mutagenesis and the resulting cDNA was cloned into the pRSETA bacterial expression vector to generate a poly-histidine tagged Cdk2 fusion that was purified from E. coli using standard techniques.
Rate constants were calculated as described in the methodology section of Examples 1 and 2.

Cdk2(H71C) (C177A) = biological target: T3, Cdk2(H71C) (C177A) (Homo sapiens, UniProt P24941, C177A/H71C); experiment: Kinetic thiol consumption assay with Cdk2 mutant H71C; type: binding; parameters: key to Rate enhancement, Cdk2 H71C: rate constant with Cdk2 ÷ rate constant with model thiol (fold); conditions: additional mutation C177A; for Rate constant with Cdk2 H71C: Protein: Cdk2, cysteine position H71C, in h^-1
T3 construct: poly-histidine; made in house; host or cells: E. coli
Method: as §2, §3, §4, §5, §6, §7

Cdk2(S276C) (C177A) = biological target: T4, Cdk2(S276C) (C177A) (Homo sapiens, UniProt P24941, C177A/S276C); experiment: Kinetic thiol consumption assay with Cdk2 mutant S276C; type: binding; parameters: key to Rate enhancement, Cdk2 S276C: rate constant with Cdk2 ÷ rate constant with model thiol (fold); conditions: additional mutation C177A; for Rate constant with Cdk2 S276C: Protein: Cdk2, cysteine position S276C, in h^-1
T4 construct: poly-histidine; made in house; host or cells: E. coli
Method: as §2, §3, §4, §5, §6, §7

Cdk2(N272C) (C177A) = biological target: T5, Cdk2(N272C) (C177A) (Homo sapiens, UniProt P24941, C177A/N272C); experiment: Kinetic thiol consumption assay with Cdk2 mutant N272C; type: binding; parameters: key to Rate enhancement, Cdk2 N272: rate constant with Cdk2 ÷ rate constant with model thiol (fold); conditions: for Rate enhancement, Cdk2 N272: Cdk2 N272, additional mutation C177A; for Rate constant with Cdk2 N272C: Protein: Cdk2, cysteine position N272C, additional mutation C177A, in h^-1
T5 construct: poly-histidine; made in house; host or cells: E. coli
Method: as §2, §3, §4, §5, §6, §7

Cdk2(T182C) (C177A) = biological target: T6, Cdk2(T182C) (C177A) (Homo sapiens, UniProt P24941, C177A/T182C); experiment: Kinetic thiol consumption assay with Cdk2 mutant T182C; type: binding; parameters: key to Rate enhancement, Cdk2 T182C: rate constant with Cdk2 ÷ rate constant with model thiol (fold); conditions: additional mutation C177A; for Rate constant with Cdk2 T182C: Protein: Cdk2, cysteine position T182C, in h^-1
T6 construct: poly-histidine; made in house; host or cells: E. coli
Method: as §2, §3, §4, §5, §6, §7

Cdk2(R122C) (C177A) = biological target: T7, Cdk2(R122C) (C177A) (Homo sapiens, UniProt P24941, C177A/R122C); experiment: Kinetic thiol consumption assay with Cdk2 mutant R122C; type: binding; parameters: key to Rate enhancement, Cdk2 R122C: rate constant with Cdk2 ÷ rate constant with model thiol (fold); conditions: additional mutation C177A; for Rate constant with Cdk2 R122C: Protein: Cdk2, cysteine position R122C, in h-1
T7 construct: poly-histidine; made in house; host or cells: E. coli
Method: as §2, §3, §4, §5, §6, §7

Cdk2(S181C) (C177A) = biological target: T8, Cdk2(S181C) (C177A) (Homo sapiens, UniProt P24941, C177A/S181C); experiment: Kinetic thiol consumption assay with Cdk2 mutant S181C; type: binding; parameters: key to Rate enhancement, Cdk2 S181C: rate constant with Cdk2 ÷ rate constant with model thiol (fold); conditions: additional mutation C177A; for Rate constant with Cdk2 S181C: Protein: Cdk2, cysteine position S181C, in h^-1
T8 construct: poly-histidine; made in house; host or cells: E. coli
Method: as §2, §3, §4, §5, §6, §7

| Compound | Rate constant with Glutathione [1] | Rate enhancement, Cdk2 WT [2] | Rate constant with Cdk2 WT [2] | Rate enhancement, Cdk2 F80C (Cdk2(C177A, F80C)) | Rate constant with Cdk2 F80C (Cdk2(C177A, F80C)) | Rate enhancement, Cdk2 H71C (Cdk2(H71C) (C177A)) | Rate constant with Cdk2 H71C (Cdk2(H71C) (C177A)) | Rate enhancement, Cdk2 S276C (Cdk2(S276C) (C177A)) | Rate constant with Cdk2 S276C (Cdk2(S276C) (C177A)) | Rate enhancement, Cdk2 N272 (Cdk2(N272C) (C177A)) | Rate constant with Cdk2 N272C (Cdk2(N272C) (C177A)) | Rate enhancement, Cdk2 T182C (Cdk2(T182C) (C177A)) | Rate constant with Cdk2 T182C (Cdk2(T182C) (C177A)) | Rate enhancement, Cdk2 R122C (Cdk2(R122C) (C177A)) | Rate constant with Cdk2 R122C (Cdk2(R122C) (C177A)) | Rate enhancement, Cdk2 S181C (Cdk2(S181C) (C177A)) | Rate constant with Cdk2 S181C (Cdk2(S181C) (C177A)) | Rate constant with glutathione (k(GSH)) [1] | Rate constant with Cdk2 (k(Cdk2)) [2] | k(Cdk2)/k(GSH) rate enhancement [2] |
| --- | --- | --- | --- | --- | --- | --- | --- | --- | --- | --- | --- | --- | --- | --- | --- | --- | --- | --- | --- | --- |
| C=CC(=O)N1CCCCCC1C/C=C/c1ccccc1 (centres unmarked) [CA-096/146] | 0.01125 | 0.3023 | 0.003401 | 1.641 | 0.01846 | 0.8889 | 0.01 | 1.276 | 0.01436 | 0.8907 | 0.01002 | 10.32 | 0.1161 | 0.7142 | 0.008035 | 12.97 | 0.1459 |  |  |  |
| C=CC(=O)N(Cc1ccco1)Cc1ccco1 [CA-099/153] | 0.2123 | 1.366 | 0.2899 | 0.1651 | 0.03506 | 0.2907 | 0.06172 | 2.266 | 0.481 | 2.393 | 0.5081 | 2.038 | 0.4326 | 2.423 | 0.5145 | 1.479 | 0.314 |  |  |  |
| C=CC(=O)N1CCC2(CC1)NC(=O)C1(CCCCC1)N2 [CA-129/235] | 0.01093 | 0.2508 | 0.002741 | 0.1819 | 0.001988 | 0.03271 | 0.0003575 | 1.682 | 0.01838 | 0.3936 | 0.004302 | 0.8826 | 0.009647 | 0.925 | 0.01011 | 0.2227 | 0.002434 |  |  |  |
| C=CC(=O)N1CC(OCCN(CC)CC)C1 [CA-145] | 0.003156 | 0.6483 | 0.002046 | 0 |  | 0 |  | 0 |  | 1.155 | 0.003646 | 1.904 | 0.00601 | 0.846 | 0.00267 | 2.572 | 0.008117 | 0.00318 | 0.00205 | 0.6425 |
| C=CC(=O)N(Cc1ccco1)C12CC3CC(CC(C3)C1)C2 [CA-157] | 0.008283 | 1.257 | 0.01041 | 0.165 | 0.001367 | 1.058 | 0.008761 | 68.22 | 0.5651 | 87.21 | 0.7224 | 10.22 | 0.08469 | 0.376 | 0.003114 | 0.9237 | 0.007651 | 0.00399 | 0.00288 | 0.7234 |
| C=CC(=O)N(C)C1C2CCOC2C1(C)C (centres unmarked) [CA-182] | 0.003007 | 1.268 | 0.003813 | 0 |  | 0.6721 | 0.002021 | 0.6169 | 0.001855 | 1.56 | 0.004691 | 6.867 | 0.02065 | 1.368 | 0.004115 | 3.018 | 0.009074 | 0.00304 | 0.00381 | 1.254 |
